Test results as given in US10323056B2, “Crystalline hydrates of 1-(β-D-glucopyranosyl)-4-methyl-3-[5-(4-fluorophenyl)-2-thienylmethyl]benzene” (Lek Pharmaceuticals d.d., priority 2013, dated 2019).

Assays:
Format in all cases: physicochemical
[1] = Competitive slurry in water (XRPD); conditions: 50 mg each in 4 mL water, cycled 7 to 10° C. for 4 days, then 10 to 30° C. for 9 days
Experimental: A suspension of 50 mg 1-(β-D-glucopyranosyl)-4-methyl-3-[5-(4-fluorophenyl)-2-thienylmethyl]benzene form HxA (for example prepared according to the procedure described in example 1 of the present invention) and 50 mg 1-(β-D-glucopyranosyl)-4-methyl-3-[5-(4-fluorophenyl)-2-thienylmethyl]benzene hemihydrate (for example prepared according to the procedure described in example 1 of WO 2008/069327 A1) in 4 mL water was stirred at moderate velocity using a magnetic stirrer. The temperature during the slurry experiment was first cycled between 7 to 10° C. for 4 days changing the temperature every 2 hours. Thereafter the suspension was cycled in the range of 10 to 30° C. for 9 days changing the temperature every 2 hours.

[2] = Water content by gravimetric moisture sorption/desorption and TGA
Experimental: The water values at varying relative humidities were obtained by recording moisture sorption isotherms with a SPS-11 moisture sorption analyzer (MD Messtechnik, Ulm, D). […] The equilibrium condition for each step was set to a mass constancy of ±0.005% over 60 min. The temperature was 25±0.1° C.
Thermogravimetric analysis (TGA) was performed using the following equipment/conditions: Thermogravimetric-system TGA-7, Pyris-Software für Windows NT, (Perkin-Elmer, Norwalk, Conn., USA), Platinum-sample holder (50 μl), Nitrogen as the purge gas (Sample purge: 20 mL/min, balance purge: 40 mL/min). Heating rate: 10 K/min; Heating Range: 25-100° C.;

[3] = Equilibrium aqueous solubility (HPLC); conditions: for Rel. Solubilities: equilibrium aqueous solubility at 25 ± 1° C., relative to forms HxA/HxB = 100
Experimental: The aqueous solubilities of 1-(β-D-glucopyranosyl)-4-methyl-3-[5-(4-fluorophenyl)-2-thienylmethyl]benzene forms HxA and HxB of the present invention and the hemihydrate of 1-(β-D-glucopyranosyl)-4-methyl-3-[5-(4-fluorophenyl)-2-thienylmethyl]benzene described in WO 2008/069327 A1 were determined by the equilibrium solubility method. Saturated solutions of 1-(β-D-glucopyranosyl)-4-methyl-3-[5-(4-fluorophenyl)-2-thienylmethyl]benzene, obtained by stirring 50 mg of each crystalline form in 50 mL water were prepared and stirred at 25±1° C. After 60 minutes of stirring, three samples were withdrawn, filtered through 0.45 μm syringe filters and the filtrates were directly analyzed by HPLC. • Column: C18 4.6×150 mm 5 μm • Eluent A: 0.1% formic acid-water solution • Eluent B: 0.1% formic acid-acetonitril solution • Injection vol.: 100 μL • Column Temp.: 25° C. • Wavelength: 220 nm • Pump flow: 1.2 mL/min • Gradient: […]
Using six concentration points of known 1-(β-D-glucopyranosyl)-4-methyl-3-[5-(4-fluorophenyl)-2-thienylmethyl]benzene concentrations a calibration line was fitted by linear regression.

Cc1ccc([C@@H]2O[C@H](CO)[C@@H](O)[C@H](O)[C@H]2O)cc1Cc1ccc(-c2ccc(F)cc2)s1 [form HxA, 1-(β-D-glucopyranosyl)-4-methyl-3-[5-(4-fluorophenyl)-2-thienylmethyl]benzene]
solid form stability in competitive slurry with hemihydrate [1]: does not transform
water content ([2]; at a RH of about 0%): about 0.1%
water content ([2]; at a RH of about 30%): about 3.5%
Rel. Solubilities [3]: 100%
increased aqueous solubility compared to the crystalline hemihydrate of WO 2008/069327 A1 ([3]; water, 25.0±1.0° C.): 10%

Cc1ccc([C@@H]2O[C@H](CO)[C@@H](O)[C@H](O)[C@H]2O)cc1Cc1ccc(-c2ccc(F)cc2)s1 [form HxB, 1-(β-D-glucopyranosyl)-4-methyl-3-[5-(4-fluorophenyl)-2-thienylmethyl]benzene]
water content ([2]; at a RH of about 40%): about 6.4%
water content ([2]; at a RH of about 95%): about 8.0%

Cc1ccc([C@@H]2O[C@H](CO)[C@@H](O)[C@H](O)[C@H]2O)cc1Cc1ccc(-c2ccc(F)cc2)s1 [form Hy0.5, 1-(β-D-glucopyranosyl)-4-methyl-3-[5-(4-fluorophenyl)-2-thienylmethyl]benzene hemihydrate, reference compound]
Rel. Solubilities ([3]; listed as hemihydrate of WO 2008/069327 A1 (=Hy0.5), hemihydrate): 90%
